Measurements from US20090069320A1, “Substituted 4-Amino-Quinazoline Compounds with Metabotropic Glutamate Receptor Regulating Activity and Uses Thereof” (Gruenenthal GmbH, priority 2006, published 2009).
Counter-ions that a name gives are not always drawn.

Biological target: T1, mGluR5 receptor (Sus scrofa, UniProt I3LUI7)
T1 construct: 450 μg of protein from brain homogenate with 5 nM ^3[H]-MPEP; from tissue; host or cells: pig brain halves without medulla, cerebellum and pons
Test: [3H]-MPEP mGluR5 receptor binding assay (pig brain homogenate)
Settings: 5 nM [3H]-MPEP, read-out: IC50 mGluR5 Receptor (pig) [^3H]-MPEP Bond
How it was run: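 Radioligand displacement of 5 nM [3H]-MPEP from pig brain homogenate (450 μg protein; medulla, cerebellum and pons removed) in 20 mM Hepes pH 8.0. Compounds were tested at 10 μM, incubated 60 min at room temperature, then filtered and counted by scintillation. Non-specific binding was defined with 10 μM MPEP.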

T1 sequence (I3LUI7 19-1212): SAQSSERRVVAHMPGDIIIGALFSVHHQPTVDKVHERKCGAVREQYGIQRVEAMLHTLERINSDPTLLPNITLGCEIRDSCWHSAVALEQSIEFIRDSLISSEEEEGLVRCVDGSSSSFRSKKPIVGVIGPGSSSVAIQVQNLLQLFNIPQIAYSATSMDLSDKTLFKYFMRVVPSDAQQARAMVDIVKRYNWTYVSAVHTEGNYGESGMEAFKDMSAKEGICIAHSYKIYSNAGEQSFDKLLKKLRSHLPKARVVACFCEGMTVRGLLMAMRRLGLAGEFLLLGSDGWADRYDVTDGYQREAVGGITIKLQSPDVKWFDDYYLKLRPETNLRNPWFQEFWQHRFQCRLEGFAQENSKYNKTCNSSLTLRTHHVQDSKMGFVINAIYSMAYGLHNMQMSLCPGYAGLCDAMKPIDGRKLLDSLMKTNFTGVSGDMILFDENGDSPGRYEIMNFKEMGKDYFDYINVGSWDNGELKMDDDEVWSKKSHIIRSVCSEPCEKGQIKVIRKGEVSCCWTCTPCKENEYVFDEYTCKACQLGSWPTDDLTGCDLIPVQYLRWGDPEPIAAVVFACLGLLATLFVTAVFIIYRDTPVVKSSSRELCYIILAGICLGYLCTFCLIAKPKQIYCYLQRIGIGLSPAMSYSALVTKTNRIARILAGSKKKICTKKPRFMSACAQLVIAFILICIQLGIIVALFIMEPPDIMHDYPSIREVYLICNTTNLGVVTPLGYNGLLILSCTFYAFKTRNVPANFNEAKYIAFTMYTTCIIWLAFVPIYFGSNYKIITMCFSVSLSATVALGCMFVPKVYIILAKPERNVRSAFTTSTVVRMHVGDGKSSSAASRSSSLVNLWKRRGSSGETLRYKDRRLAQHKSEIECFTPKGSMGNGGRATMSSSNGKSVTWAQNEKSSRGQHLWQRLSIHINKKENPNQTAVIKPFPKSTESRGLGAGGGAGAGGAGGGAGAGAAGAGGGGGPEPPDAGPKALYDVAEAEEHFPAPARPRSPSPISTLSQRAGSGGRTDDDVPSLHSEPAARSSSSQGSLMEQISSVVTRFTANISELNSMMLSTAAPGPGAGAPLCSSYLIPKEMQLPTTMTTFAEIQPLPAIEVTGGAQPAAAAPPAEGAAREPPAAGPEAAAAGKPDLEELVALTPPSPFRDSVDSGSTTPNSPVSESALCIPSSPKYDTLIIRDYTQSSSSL

Compound	IC50
CC(C)(C)CNc1ncnc2ccc(-c3cccc(CN4C(=O)CCC4=O)c3)cc12 [Example 866, 1-(3-(4-(neopentylamino)quinazolin-6-yl)benzyl)pyrrolidine-2,5-dione]	0.09 µM
O=C(N(Cc1cc(-c2ccc3ncnc(NC4CC4)c3c2)ccc1F)C1CC1)C(F)(F)F [Example 870, N-cyclopropyl-N-(5-(4-(cyclopropylamino)quinazolin-6-yl)-2-fluorobenzyl)-2,2,2-trifluoroacetamide]	0.01 µM
O=C1CCC(=O)N1Cc1cccc(-c2ccc3ncnc(NC4CCC4)c3c2)c1 [Example 872, 1-(3-(4-(cyclobutylamino)quinazolin-6-yl)benzyl)pyrrolidine-2,5-dione hydrochloride]	0.05 µM

Same assay, conditions: 10 μM compound, 5 nM [3H]-MPEP

Compound	% Inhibition of mGluR5 Receptor (pig) [^3H]-MPEP Bond at 10 μM
CC(C)(C)Nc1ncnc2ccc(-c3ccc(F)c(CN(C(=O)c4cccnc4)C4CC4)c3)cc12 [Example 838, N-(5-(4-(tert-butylamino)quinazolin-6-yl)-2-fluorobenzyl)-N-cyclopropyl nicotinamide]	92%
CC(=O)N(Cc1cc(-c2ccc3ncnc(NC(C)(C)C)c3c2)ccc1F)C1CC1 [Example 844, N-(5-(4-(tert-butylamino)quinazolin-6-yl)-2-fluorobenzyl)-N-cyclopropyl acetamide]	94%
O=S(=O)(c1c(F)c(F)c(F)c(F)c1F)N(Cc1cc(-c2ccc3ncnc(NC4CC4)c3c2)ccn1)C1CC1 [Example 848, N-cyclopropyl-N-((4-(4-(cyclopropylamino)quinazolin-6-yl)pyridin-2-yl)methyl)-2,3,4,5,6-pentafluorobenzole sulfonamide]	53%
CC(C)(C)Nc1ncnc2ccc(-c3ccc(F)c(CN(C(=O)C(C)(C)C)C4CC4)c3)cc12 [Example 850, N-(5-(4-(tert-butylamino)quinazolin-6-yl)-2-fluorobenzyl)-N-cyclopropyl pivalamide]	83%
CNc1ncnc2ccc(-c3cccc(CN(c4ccccc4F)S(=O)(=O)c4ccccc4)c3)cc12 [Example 852, N-(2-fluorophenyl)-N-(3-(4-(methylamino)quinazolin-6-yl)benzyl)benzole sulfonamide]	49%
CC(C)S(=O)(=O)N(Cc1cc(-c2ccc3ncnc(NC4CC4)c3c2)ccc1Cl)C1CC1 [Example 854, N-(2-chloro-5-(4-(cyclopropylamino)quinazolin-6-yl)benzyl)-N-cyclopropyl propane-2-sulfonamide]	75%
CCCCC(=O)N(Cc1cc(-c2ccc3ncnc(NC(C)(C)C)c3c2)ccc1F)C1CC1 [Example 856, N-(5-(4-(tert-butylamino)quinazolin-6-yl)-2-fluorobenzyl)-N-cyclopropyl pentanamide]	89%
CC(C)(C)Nc1ncnc2ccc(-c3ccc(F)c(CN(C4CC4)S(=O)(=O)c4ccc(Cl)cc4Cl)c3)cc12 [Example 857, N-(5-(4-(tert-butylamino)quinazolin-6-yl)-2-fluorobenzyl)-2,4-dichloro-N-cyclopropyl benzole sulfonamide]	36%
O=S(=O)(c1cccc(C(F)(F)F)c1)N(Cc1cc(-c2ccc3ncnc(NC4CC4)c3c2)ccn1)C1CC1 [Example 858, N-cyclopropyl-N-((4-(4-(cyclopropylamino)quinazolin-6-yl)pyridin-2-yl)methyl)-3-(trifluoromethyl)benzole sulfonamide]	85%

Same assay, conditions: 10 μM compound, 5 nM [3H]-MPEP, read-out: % Inhibition of mGluR5 Receptor (pig) [^3H]-MPEP Bond at 10 μM

Compound	inhibition at 10 µM
CC(C)(C)Nc1ncnc2ccc(-c3ccc(F)c(CN(C(=O)c4c(F)c(F)c(F)c(F)c4F)C4CC4)c3)cc12 [Example 840, N-(5-(4-(tert-butylamino)quinazolin-6-yl)-2-fluorobenzyl)-N-cyclopropyl-2,3,4,5,6-pentafluorobenzamide]	74%
O=C(Cc1ccccc1)N(Cc1cc(-c2ccc3ncnc(NC4CC4)c3c2)ccn1)C1CC1 [Example 841, N-cyclopropyl-N-((4-(4-(cyclopropylamino)quinazolin-6-yl)pyridin-2-yl)methyl)-2-phenylacetamide]	36%
COc1ccc(C(=O)N(Cc2cc(-c3ccc4ncnc(NC(C)(C)C)c4c3)ccc2F)C2CC2)cc1OC [Example 843, N-(5-(4-(tert-butylamino)quinazolin-6-yl)-2-fluorobenzyl)-N-cyclopropyl-3,4-dimethoxybenzamide]	71%
COCC(=O)N(Cc1cc(-c2ccc3ncnc(NC(C)(C)C)c3c2)ccc1F)C1CC1 [Example 846, N-(5-(4-(tert-butylamino)quinazolin-6-yl)-2-fluorobenzyl)-N-cyclopropyl-2-methoxyacetamide]	82%
O=C(CCc1ccccc1)N(Cc1cc(-c2ccc3ncnc(NC4CC4)c3c2)ccn1)C1CC1 [Example 847, N-cyclopropyl-N-((4-(4-(cyclopropylamino)quinazolin-6-yl)pyridin-2-yl)methyl)-3-phenylpropanamide]	43%
CC(C)(C)Nc1ncnc2ccc(-c3ccc(F)c(CN(C(=O)c4cccc(F)c4)C4CC4)c3)cc12 [Example 849, N-(5-(4-(tert-butylamino)quinazolin-6-yl)-2-fluorobenzyl)-N-cyclopropyl-3-fluorobenzamide]	86%
CS(=O)(=O)N(Cc1cc(-c2ccc3ncnc(NC4CC4)c3c2)ccn1)C1CC1 [Example 853, N-cyclopropyl-N-((4-(4-(cyclopropylamino)quinazolin-6-yl)pyridin-2-yl)methyl)methane sulfonamide]	67%
CC(C)(C)Nc1ncnc2ccc(-c3ccc(F)c(CN(C(=O)c4ccc(F)cc4F)C4CC4)c3)cc12 [Example 855, N-(5-(4-(tert-butylamino)quinazolin-6-yl)-2-fluorobenzyl)-N-cyclopropyl-2,4-difluorobenzamide]	83%
O=C(c1c(F)c(F)c(F)c(F)c1F)N(Cc1cc(-c2ccc3ncnc(NC4CC4)c3c2)ccc1Cl)C1CC1 [Example 859, N-(2-chloro-5-(4-(cyclopropylamino)quinazolin-6-yl)benzyl)-N-cyclopropyl-2,3,4,5,6-pentafluorobenzamide]	92%
CC(C)(C)Nc1ncnc2ccc(-c3ccc(F)c(CN(C(=O)c4ccc(C(F)(F)F)cc4F)C4CC4)c3)cc12 [Example 860, N-(5-(4-(tert-butylamino)quinazolin-6-yl)-2-fluorobenzyl)-N-cyclopropyl-2-fluoro-4-(trifluoromethyl)benzamide]	63%
CN(C)CC(=O)N(Cc1cc(-c2ccc3ncnc(NC(C)(C)C)c3c2)ccc1F)C1CC1 [Example 861, N-(5-(4-(tert-butylamino)quinazolin-6-yl)-2-fluorobenzyl)-N-cyclopropyl-2-(dimethylamino)acetamide]	55%
COCCNc1ncnc2ccc(-c3cccc(CN4C(=O)CCC4=O)c3)cc12 [Example 867, 1-(3-(4-(2-methoxyethylamino)quinazolin-6-yl)benzyl)pyrrolidine-2,5-dione hydrochloride]	67%
NC1(C(=O)NCc2cccc(-c3ccc4ncnc(NC5CC5)c4c3)c2)CC1 [Example 869, 1-amino-N-(3-(4-(cyclopropylamino)quinazolin-6-yl)benzyl)cyclopropane carboxamide dihydrochloride]	65%
